Experimental data taken from PMC9124651, “High-performance thin-layer chromatography in combination with an acetylcholinesterase-inhibition bioassay with pre-oxidation of organothiophosphates to determine neurotoxic effects in storm, waste, and surface water” (Analytical and Bioanalytical Chemistry, 2022).
Converted amounts (≈) assume the structure as drawn.

Tests used:
[1] = target: T1, AChE from electric eel (Electrophorus electricus) (Electrophorus electricus, UniProt O42275); test: AChE-inhibition microtiter assay (Ellman, 96-well, with or without NBS oxidation); format: biochemical; settings: for IC80 / IC20: no oxidation, 4-PL fit, n = 4; for IC80: read-out: IC20 (inhibition concentration for 20% AChE activity), best fit; for IC20: read-out: IC80 (inhibition concentration for 80% AChE activity), best fit
T1 construct: purchased Sigma-Aldrich GmbH (Steinheim, Germany)
Protocol: Stock solutions (1 mg/mL) of NBS and ascorbic acid were each freshly prepared before the test and then diluted to 10 µg/mL and 100 µg/mL, respectively. The assay was performed with modifications according to Ellman’s method. OTPs, oxons, water, and methanol blanks (15 µL) were each mixed with 15 µL of NBS (10 µg/mL) in a 96-well plate. After an incubation at room temperature for 5 min, the reaction was stopped by adding 15 µL ascorbic acid (100 µg/mL). For the test setup without oxidation, OTPs, oxons, water, and methanol blanks (15 µL) were mixed with 30 µL water per well. Subsequently, 200 µL of a DTNB solution (0.15 mM), buffered in TRIS/HCl at a pH of 7.4, was added to each well of both test setups. Then, 20 µL of an AChE solution (0.5 U/mL), also buffered in TRIS/HCl at a pH of 7.4, was added. An incubation at 30 °C for 30 min without shaking followed. An ATCL solution (0.8 mM) was freshly prepared with water and 30 µL per well was added after incubation. During another incubation at room temperature for 30 min, ATCL was cleaved by AChE into thiocholine and acetic acid. Thiocholine reacts with DTNB to 2-nitro-5-thiobenzoate. The absorbance of the yellow-colored anion was photometrically measured at 405 nm (Sunrise Remote, Tecan Group AG, Männedorf, Schweiz).
Dilution series with eight concentrations of the three OTPs and related oxons (Tab. S1) were freshly prepared from stock solutions (1–10 mg/mL) in methanol. The OTPs and oxons were tested in duplicates with and without prior oxidation in two measurements as described in the “AChE-inhibition microtiter assay” section. Eight water and eight methanol blanks were tested per test setup (oxidation and no oxidation). Of these, two were tested without AChE and two without ATCL. The mean AChE activity (absorption at 405 nm, n = 4) was related to the specific inhibitor dose. The statistic program Prism (version 5.00, Graph Pad Software, San Diego, USA) was used to generate dose–response curves (4-PL fit) and to determine inhibition concentrations (ICs) for the three OTPs and related oxons. The 95% confidence intervals of the curves and the standard deviations of the mean AChE activity were also calculated. The lower boundary of the curves is fixed to 0 and the highest mean activity defines 100%.

[2] = target: T1, AChE from electric eel (Electrophorus electricus); test: HPTLC-(Ox)-AChE-I assay, immersion method (plates immersed in AChE solution); format: biochemical; settings: without oxidation; for IC10 (10% AChE inhibition), best fit / IC20 (20% AChE inhibition), best fit / IC50 (50% AChE inhibition), best fit / IC80 (80% AChE inhibition), best fit: OTPs 100 µL, oxons 10 µL applied, peak heights, n = 3
Protocol: LiChrospher 10 × 20 cm HPTLC Silica gel 60 F254s plates (Merck, Darmstadt, Germany) with a layer thickness of 170–190 µm and spherical silica particles with a size of 7 µm were used. The HPTLC plates were immersed twice in 2-propanol for 20 min, each time followed by a drying step at room temperature for 20 min. The plates then were pre-developed with methanol, dried for 20 min at room temperature, heated at 105 °C for 20 min, and stored in a desiccator for further use. The automatic TLC Sampler 4 (ATS 4, CAMAG AG, Muttenz, Switzerland) was used for sample application. The desired sample volumes were sprayed as 6-mm-wide bands onto the HPTLC plates with an application speed of 300 nL/s. The distances of the exterior bands from the edges of the plates were 15 mm. The distance from the bottom edge was 8 mm for all bands. Methanol was used as rinsing solvent. The following further application parameters were used: filling speed 15 µL/s, pre-dosage volume 200 nL, retraction volume 200 nL, rinsing vacuum time 4 s, filling vacuum time 0 s, rinsing cycles 2, and filling cycles 1. The development of the HPTLC plates was realized by the Automated Multiple Development 2 (AMD 2, CAMAG, Muttenz, Switzerland). The OTPs, their oxons, and environmental samples were separated with an eluent mixture of cyclohexane, dichloromethane, and acetone in different proportions and with increasing migration distances (Fig. S2). After each development step, a drying step of 3 min under vacuum followed. The final migration distance was 80 mm and the whole procedure took approximately 45 min. In addition, a simpler development process was used containing only the last step of the previous described method.
After chromatographic development, 10 mL of freshly prepared NBS (100 µg/mL) was sprayed onto the HPTLC plates with a glass reagent sprayer, followed by a 5-min incubation at room temperature. The following AChE-I assay was performed in parts according to Mendoza et al., Stütz et al., and Weins and Jork. AChE was buffered in TRIS/HCl at a pH of 7.8 (2.5 U/mL). The AChE solution was either sprayed onto the HPTLC plates with a glass reagent sprayer until the plates were evenly moist (approx. 10 mL) or the plates were immersed in the AChE solution using the Chromatogram Immersion Device 3 (CID 3, CAMAG, Muttenz, Switzerland). The immersion volume, speed, time, and depth were approx. 200 mL, 2.5 cm/s, 2 s, and approx. 85 mm, respectively. Afterward, the plates were placed separately in closed plastic boxes, which contained paper towels moistened with water to gain a saturated atmosphere. An incubation at 37 °C for 5 min followed. The substrate indoxyl acetate was freshly prepared in methanol at a concentration of 20 mg/mL and 5 mL was sprayed onto the HPTLC plates with a glass reagent sprayer. During 45-min incubation time at room temperature, AChE cleaves the substrate into indoxyl and acetate. The indoxyl reacts with oxygen to the blue indigo dye. When AChE was inhibited, no indigo was produced and the spot stayed white. The TLC Scanner 3 (CAMAG, Muttenz, Switzerland) was used to scan each track on the plates at 670 nm using the fluorescence mode without optical filter. The CAMAG-embedded software Wincats (Vers. 1.4.9) was used to provide chromatograms of each track and to evaluate inhibition zones.
Several amounts of an OTP mix and an oxon mix were applied on HPTLC plates (Tab. S2) and tested as described in the “Combination of HPTLC and AChE-inhibition assay” section. Three plates were used for each dilution series. The application volume was 10 µL for investigating OTPs with following oxidation and 100 µL for testing OTPs without following oxidation. The application volume for the oxons was 10 µL. They were tested without oxidation step also in triplicates. The peak heights were used for evaluation. Only peaks that have a signal-to-noise ratio ≥ 3 were considered in the evaluation. The height next to the respective peak defines the noise. […]

T1 sequence (O42275 24-633): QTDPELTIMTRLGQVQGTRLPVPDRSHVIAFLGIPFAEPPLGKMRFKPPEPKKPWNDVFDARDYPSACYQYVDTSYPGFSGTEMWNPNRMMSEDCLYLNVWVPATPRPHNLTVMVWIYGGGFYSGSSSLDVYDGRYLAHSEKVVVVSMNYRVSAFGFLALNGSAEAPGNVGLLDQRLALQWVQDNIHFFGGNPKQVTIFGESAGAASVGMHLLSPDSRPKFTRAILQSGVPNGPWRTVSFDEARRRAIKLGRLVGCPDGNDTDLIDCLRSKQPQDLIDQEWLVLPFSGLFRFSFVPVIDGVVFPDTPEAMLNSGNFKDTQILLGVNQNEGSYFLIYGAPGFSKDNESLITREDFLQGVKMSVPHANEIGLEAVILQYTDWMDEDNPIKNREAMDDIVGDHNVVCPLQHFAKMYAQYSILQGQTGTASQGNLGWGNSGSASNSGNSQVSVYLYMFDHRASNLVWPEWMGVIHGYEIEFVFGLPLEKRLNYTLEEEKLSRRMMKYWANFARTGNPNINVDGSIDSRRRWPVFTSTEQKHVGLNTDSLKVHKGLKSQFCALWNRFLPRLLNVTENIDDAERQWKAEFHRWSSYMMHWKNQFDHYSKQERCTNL

CCOP(=O)(OCC)Oc1nc(Cl)c(Cl)cc1Cl [Chlorpyrifos-oxon]
IC80 [1]: 16 ng/mL (≈ 0.0478 µM)
IC20 [1]: 3.8 ng/mL (≈ 0.0114 µM)
LOD immersion method (first detected AChE-I peak with signal-to-noise ratio ≥ 3) [2]: 0.25 ng/spot
IC10 (10% AChE inhibition), best fit [2]: 0.32 ng/spot
IC20 (20% AChE inhibition), best fit [2]: 0.57 ng/spot
IC50 (50% AChE inhibition), best fit [2]: 1.5 ng/spot
IC80 (80% AChE inhibition), best fit [2]: 4.0 ng/spot

CCOC(=O)CC(SP(=O)(OC)OC)C(=O)OCC (stereo not drawn) [Malaoxon, malaoxon]
IC50 [1]: 38.2 nM
IC80 [1]: 42 ng/mL (≈ 0.134 µM)
IC20 [1]: 3.5 ng/mL (≈ 0.0111 µM)
LOD immersion method (first detected AChE-I peak with signal-to-noise ratio ≥ 3) [2]: 0.1 ng/spot
IC10 (10% AChE inhibition), best fit [2]: 0.14 ng/spot
IC20 (20% AChE inhibition), best fit [2]: 0.24 ng/spot
IC50 (50% AChE inhibition), best fit [2]: 0.60 ng/spot
IC80 (80% AChE inhibition), best fit [2]: 1.5 ng/spot
